Experimental findings from US20260157378A1, “PROCESS FOR THE PREPARATION OF COMPOSITIONS BASED ON AMINO ACIDS AND PEPTIDES OF ANIMAL ORIGIN AND IODINE, COMPOSITIONS THUS OBTAINED AND USE THEREOF” (SICIT GROUP S.P.A., priority 2022, published 2026) are described below.

In test [1] the test system is lettuce plants (Lactuca sativa L.) var. Sant'Anna. The test can be described thus: Application of the iodine formulation by root application (hydroponic nutritive solution), iodine content by optical emission spectrometry. The class given is in vivo. The settings on record: 36 μg I/L of nutritive solution, harvested after 15 days, lettuce aerial part. Here is the method: (§1) The seeds of the selected species were germinated within germination trays filled with a growth substrate composed by vernalized black peat and blond sphagnum peat (Agrofino Professional) and placed in a growth chamber.
(§2) The germinated seedlings were grown until the 2nd real leaf stage. Later, the growth substrate portion wherein the roots were confined was extracted and a gentle washing was carried out in order to remove the whole substrate and thus obtain a free root seedling ready to be placed in hydroponics, for the test of root application. The plants were transplanted in 0.35 L pots for the foliar application test.
The plants were grown in recipients containing 5 L of nutritive solution added with iodine salts obtained according to Example 1, or with the nutritive solution added with the formulation object of the patent. In both treatments, the applied iodine amount was the same: 36 μg I/L of nutritive solution. The plants were then grown in controlled conditions in a growth chamber: • 07.00-12.00: T 24° C., RH 60%, Light Int. 300 μmol/m^2/s; • 12.00-16.00: T 25° C., RH 60%, Light Int. 400 μmol/m^2/s; • 16.00-20.00: T 24° C., RH 60%, Light Int. 300 μmol/m^2/s; • 20.00-07.00: T 23° C., RH 60%, Light Int. 0 μmol/m^2/s.
After 15 days the plants were harvested and the aerial part was weighted. Each plant was washed with deionized water and dried in oven at 105° C. overnight. […]

The test system is the same in test [2]. The test is described as follows: Application of the iodine formulation by foliar application (foliar spray), iodine content by optical emission spectrometry. The class given is in vivo. Particulars: foliar spray at transplantation and after 7 days, 30 μg iodine/plant, harvested after 15 days, lettuce aerial part. Here is the method: as §1, §2
The plants were grown for 15 days in 0.35 L pots, containing universal topsoil based on vernalized black peat and blond sphagnum, in controlled conditions in a growth chamber: • 07.00-12.00: T 24° C., RH (Relative humidity) 60%, Light Int. 300 μmol/m^2/s; • 12.00-16.00: T 25° C., RH 60%, Light Int. 400 μmol/m^2/s; • 16.00-20.00: T 24° C., RH r 60%, Light Int. 300 μmol/m^2/s; • 20.00-07.00: T 23° C., RH 60%, Light Int. 0 μmol/m^2/s.
The formulations (iodine salts and formulation object of the invention) were applied during transplantation and after 7 days, by foliar spray, delivering 5 ml of applicative solution according to Example 1 to each plant. In both treatments, the applied iodine amount was the same: 30 μg/plant. […]

`[I-].[K+]` [KI salt, potassium iodide]: in test [1], the iodine absorption efficiency came out at 46% and the “iodine content in the food” value was 55 μg/100 g fresh weight. In test [2], the iodine absorption efficiency came out at 40% and the “iodine content in the food” value was 36 μg/100 g fresh weight.
